From a melting point compilation (Tetko et al.)

SMILES	melting point [°C]
O=C(O)c1ccc(OC2CCC2)cc1Cl	127 to 129
COc1ccc(SCCC(=O)O)cc1OC	72 to 74
CC(C)Nc1ccc(C(=O)O)cn1	249 to 251
CC(CC(N)=NO)N(C)C(=O)OC(C)(C)C (centres undefined)	102 to 104
COc1cccc2cc(C=O)oc12	45 to 47
O=C(O)c1cccc(-n2cc(Br)cn2)c1	195 to 197
O=C(O)C1CC(=O)N(c2ccccc2Br)C1 (centres undefined)	177 to 179
NCc1cn(-c2ccccc2)nc1-c1ccccc1	61 to 63
O=C1NC(=O)C(Cc2ccccc2)(c2ccccc2)N1 (centres undefined)	209 to 211
O=c1[nH]nnn1-c1cccs1	151 to 153
Cc1cnc(C#N)nc1	67 to 69
Nc1n[nH]c2nc3ccccc3cc12	314 to 316
c1n[nH]c2cc3c(cc12)OCO3	199 to 201
CN(C)C(=O)C1CCC(C(=O)O)CC1 (centres undefined)	169 to 171
Cc1cnoc1C(=O)O	133 to 135
CN(C)C(N)=S	144 to 146
Nc1nc(Cl)c(C=O)c(N2CCOCC2)n1	173 to 175
CC(C)(C)NC(=O)c1ccc(C(=O)O)cc1	217 to 219
CC(C)c1cccc(C(=O)O)n1	63 to 65
O=c1cc(CCl)c2cc3c(cc2o1)CCC3	142 to 144
CCOc1ccc(C2(C)NC(=O)NC2=O)cc1 (centres undefined)	190 to 192
COc1ccc(C=NO)cc1OCc1ccccc1	75 to 77
NC(=NO)c1ccc(N2CCC(O)CC2)cc1	169 to 171
CC(C)(C)c1ccc(C(=O)NCCC(=O)O)cc1	129 to 131
O=C(c1cn[nH]c1)N1CCN(c2ccccn2)CC1	194 to 196
O=S(=O)(Cl)c1csc(-c2ccc(Cl)cc2)n1	93 to 95

SMILES	melting point [°C]
CN1CCC(N(C)c2ccc(N)cc2)CC1	62 to 64
Nc1[nH]ncc1[N+](=O)[O-]	237 to 239
COc1ccc(C)cc1N1CC(C(=O)O)CC1=O (centres undefined)	171 to 173
COC(=O)Cc1nn[nH]n1	154 to 156
CCOC(=O)C(=O)CC(=O)c1cccnc1	66 to 68
O=C1OCCN1c1ccc(S(=O)(=O)Cl)cc1	168 to 170
OC1CCN(c2ccc(Cl)nn2)CC1	109 to 111
O=C(O)CN1CC(=O)Oc2ccccc21	176 to 178
CC(C)(C)OC(=O)N1CCN(c2nc(N)ns2)CC1	196 to 198
O=C(Nc1cccnc1)C(Cl)C(=O)c1ccccc1 (centres undefined)	86 to 90
NNc1nccc2sccc12	191 to 193
Cc1cnn(CCC(=O)O)c1	94 to 96
CCc1nc2ccccc2n1CC(=O)NN	211 to 213
CC(=O)N[C@@H](CC(=O)O)C(N)=O	159 to 161
Nc1ccc(CC(F)(F)F)cc1	46 to 48
CC(C)(C)OC(=O)NC(C(=O)O)C(C)(C)C (centres undefined)	117 to 119
Nc1c(Cl)ccc2nsnc12	89 to 91
Cc1nn(C)c(C)c1O	186 to 188
Cn1cc([N+](=O)[O-])cc1C(=O)O	199 to 201
O=C(O)COCCN1CCN(C(c2ccccc2)c2ccc(Cl)cc2)CC1 (centres undefined)	224 to 226
O=Cc1csc(COc2ccccc2)n1	76 to 78
CC(=O)c1ccc(NC(=O)CI)cc1	139 to 141
CC1(c2ccc3c(c2)OCCO3)NC(=O)NC1=O (centres undefined)	180 to 182
COc1ccccc1OCc1ccccc1N	55 to 57
NS(=O)(=O)c1ccccn1	141 to 143
O=C1CN(/C=C/c2ccccc2)C(=O)N1	224 to 226

SMILES	melting point [°C]
CNC(=O)c1ccc(Cl)c(N)c1	144 to 146
CCOC(=O)Nc1ccc(NC(C)c2ccccn2)cc1 (centres undefined)	145 to 147
CCCOc1cccc(CC(=O)O)c1	88 to 90
CC(C)(C)c1c(C(=O)O)nnn1-c1ccc(Cl)cc1F	152 to 154
CCOC(=O)c1cnc(N2CCNCC2)s1	73 to 75
COC(=O)c1ccoc1CSc1ccccc1C(=O)O	157 to 159
O=C(O)c1sccc1S(=O)(=O)Nc1cccc2cn[nH]c12	236 to 238
Cc1nc(C(=O)O)nn1-c1nnc[nH]1	225 to 227
ClCc1cc(Cl)cc2c1OCC2	46 to 48
Clc1csc(Cl)n1	42 to 46
Nc1ncc([N+](=O)[O-])cc1C(=O)O	239 to 241
COCC(C)n1cc(C(=O)O)c(C)n1 (centres undefined)	114 to 116
CC(C)Oc1cc(C(=O)O)ccn1	145 to 147
Cc1cc(-c2nnco2)ccc1[N+](=O)[O-]	119 to 121
CN1CCN(S(=O)(=O)c2ccc(Cl)nc2)CC1	129 to 131
Nc1nc2cc3c(cc2s1)OC(F)(F)O3	191 to 193
N#CCN1C(=O)c2ccccc2C1=O	125 to 127
COc1ccc(NC(=O)OCC(F)(F)F)cn1	86 to 88
CC(Cl)C(=O)N(c1nccs1)C1CCCCC1 (centres undefined)	82 to 84
NCc1ccc(N2CCC(O)CC2)c(F)c1	104 to 106
CCC(C)(C)c1ccc(OCCCC(=O)O)c(C(C)(C)CC)c1	99 to 101
CC(=O)c1ccc(N2CCOCC2)c(F)c1	84 to 86
O=C1C(Br)CCN1c1ccccc1F (centres undefined)	76 to 78
Nc1ccn(Cc2ccccc2)n1	56 to 58
CCOc1ccccc1-c1cc(C(=O)O)n[nH]1	224 to 226
Cc1ccc(N)cc1OCC1CCOCC1	114 to 116

SMILES	melting point [°C]
Nc1nc(CN2CCN(c3ccc(F)cc3)CC2)cs1	194 to 196
N#Cc1ccc(CN2CCc3ccccc32)cc1	76 to 78
Fc1ccc(NC2CCOCC2)nc1	115 to 117
CCOC(=O)c1c(C)[nH]c(C(=O)C(C)Cl)c1C (centres undefined)	148 to 150
COc1ccc(CCNC(=O)C(C)Cl)cc1OC (centres undefined)	76 to 78
Nc1cc(N2CCNC2=O)ccc1Cl	224 to 226
OCc1ccc(F)c2cccnc12	131 to 133
Cc1nnc(N2CCCC2)c(C(N)=O)c1C	211 to 213
CC(=O)c1ccoc1	52 to 54
COc1ccc(C2CCN2S(=O)(=O)c2ccc(C)cc2)cc1 (centres undefined)	102 to 104
Cc1cc2ncc(Br)cn2n1	137 to 139
O=C(O)CNC(=O)Cn1cncn1	206 to 208
Cc1nc(O)ccc1C(=O)O	329 to 331
CCOC(=O)c1c(CCCO)cnc2nc(C(=O)OC)nn12	86 to 88
O=C(O)CNS(=O)(=O)c1c(F)cc(F)cc1Br	136 to 138
Nc1cnccc1SCCCO	71 to 73
N#Cc1cc(C(=O)C(Cl)(Cl)Cl)c[nH]1	129 to 131
Cc1cc(Br)cc(Cl)c1OCC(=O)O	197 to 199
O=C(O)C1CSCN1C(=O)C1CCCC1 (centres undefined)	114 to 116
CC(=O)Nc1ccc(Br)cc1N	155 to 157
Nc1ccc2c(N)n[nH]c2c1	209 to 211
O=C(O)c1nc(NCCc2ccccc2)ncc1Cl	158 to 160
CC(C)(C)NS(=O)(=O)CC(=O)O	93 to 95
NC(=O)c1cccc(C=O)c1	108 to 110
O=C(O)CNC(=O)C1c2ccccc2C(=O)N1C1CC1 (centres undefined)	242 to 244
CC(C)(C)C(N)=S	114 to 116
